{"source": "ChEMBL document CHEMBL1201862", "about": "“PubChem BioAssay data set” (2004)", "experiment_in_all_cases": "NCI-60 cell line screen, 48 h", "key": {"786-0": {"tested_on": "786-0"}, "A498": {"tested_on": "A498"}, "A549": {"tested_on": "A549"}, "ACHN": {"tested_on": "ACHN"}, "BT-549": {"tested_on": "BT-549"}, "CAKI-1": {"tested_on": "CAKI-1"}, "CCRF-CEM": {"tested_on": "CCRF-CEM"}, "COLO 205": {"tested_on": "COLO 205"}, "DU-145": {"tested_on": "DU-145"}, "EKVX": {"tested_on": "EKVX"}, "HCC 2998": {"tested_on": "HCC 2998"}, "HCT-116": {"tested_on": "HCT-116"}, "HCT-15": {"tested_on": "HCT-15"}, "HL-60": {"tested_on": "HL-60"}, "HOP-62": {"tested_on": "HOP-62"}, "HOP-92": {"tested_on": "HOP-92"}, "HT-29": {"tested_on": "HT-29"}, "Hs-578T": {"tested_on": "Hs-578T"}, "IGROV-1": {"tested_on": "IGROV-1"}, "K562": {"tested_on": "K562"}, "KM12": {"tested_on": "KM12"}, "LOX IMVI": {"tested_on": "LOX IMVI"}, "M14": {"tested_on": "M14"}, "MCF7": {"tested_on": "MCF7"}, "MDA-MB-231": {"tested_on": "MDA-MB-231"}, "MDA-MB-435": {"tested_on": "MDA-MB-435"}, "MDA-N": {"tested_on": "MDA-N"}, "MOLT-4": {"tested_on": "MOLT-4"}, "Malme-3M": {"tested_on": "Malme-3M"}, "NCI-H226": {"tested_on": "NCI-H226"}, "NCI-H23": {"tested_on": "NCI-H23"}, "NCI-H460": {"tested_on": "NCI-H460"}, "NCI-H522": {"tested_on": "NCI-H522"}, "NCI/ADR-RES": {"tested_on": "NCI/ADR-RES"}, "OVCAR-3": {"tested_on": "OVCAR-3"}, "OVCAR-4": {"tested_on": "OVCAR-4"}, "OVCAR-5": {"tested_on": "OVCAR-5"}, "OVCAR-8": {"tested_on": "OVCAR-8"}, "PC-3": {"tested_on": "PC-3"}, "RPMI-8226": {"tested_on": "RPMI-8226"}, "RXF 393": {"tested_on": "RXF 393"}, "SF-268": {"tested_on": "SF-268"}, "SF-295": {"tested_on": "SF-295"}, "SF-539": {"tested_on": "SF-539"}, "SK-MEL-28": {"tested_on": "SK-MEL-28"}, "SK-MEL-2": {"tested_on": "SK-MEL-2"}, "SK-MEL-5": {"tested_on": "SK-MEL-5"}, "SK-OV-3": {"tested_on": "SK-OV-3"}, "SN12C": {"tested_on": "SN12C"}, "SNB-19": {"tested_on": "SNB-19"}, "SNB-75": {"tested_on": "SNB-75"}, "SR": {"tested_on": "SR"}, "SW-620": {"tested_on": "SW-620"}, "T47D": {"tested_on": "T47D"}, "TK-10": {"tested_on": "TK-10"}, "U-251": {"tested_on": "U-251"}, "UACC-257": {"tested_on": "UACC-257"}, "UO-31": {"tested_on": "UO-31"}}, "note": "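1) Cells in 96-well plates. 2) Compound, 48 h, 5 concentrations. 3) Linear interpolation between surrounding doses. 4) Unreached endpoint = highest concentration. GI50 marks 50% less growth.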 Calls of active or inactive are those of the source. Rule as the data show it: active = GI50 up to about 1.1 µM and inactive = higher."}
{"molecule": "COC(=O)c1ccc(-n2c(C)nc(=O)c(-c3ccccc3)c2C)cc1", "values": [{"measurement": "GI50", "setting": "786-0", "value": "> 100 µM (inactive)"}, {"measurement": "GI50", "setting": "A498", "value": "> 100 µM (inactive)"}, {"measurement": "GI50", "setting": "A549", "value": "> 100 µM (inactive)"}, {"measurement": "GI50", "setting": "ACHN", "value": "> 100 µM (inactive)"}, {"measurement": "GI50", "setting": "BT-549", "value": "> 100 µM (inactive)"}, {"measurement": "GI50", "setting": "CAKI-1", "value": "> 100 µM (inactive)"}, {"measurement": "GI50", "setting": "CCRF-CEM", "value": "> 100 µM (inactive)"}, {"measurement": "GI50", "setting": "COLO 205", "value": "> 100 µM (inactive)"}, {"measurement": "GI50", "setting": "DU-145", "value": "> 100 µM (inactive)"}, {"measurement": "GI50", "setting": "EKVX", "value": "> 100 µM (inactive)"}, {"measurement": "GI50", "setting": "HCC 2998", "value": "> 100 µM (inactive)"}, {"measurement": "GI50", "setting": "HCT-116", "value": "> 100 µM (inactive)"}, {"measurement": "GI50", "setting": "HCT-15", "value": "> 100", "unit": "µM"}, {"measurement": "GI50", "setting": "HL-60", "value": "> 100 µM (inactive)"}, {"measurement": "GI50", "setting": "HOP-62", "value": "> 100 µM (inactive)"}, {"measurement": "GI50", "setting": "HOP-92", "value": "> 100 µM (inactive)"}, {"measurement": "GI50", "setting": "HT-29", "value": "> 100 µM (inactive)"}, {"measurement": "GI50", "setting": "Hs-578T", "value": "> 100 µM (inactive)"}, {"measurement": "GI50", "setting": "IGROV-1", "value": "> 100 µM (inactive)"}, {"measurement": "GI50", "setting": "K562", "value": "> 100 µM (inactive)"}, {"measurement": "GI50", "setting": "KM12", "value": "> 100 µM (inactive)"}, {"measurement": "GI50", "setting": "LOX IMVI", "value": "> 100 µM (inactive)"}, {"measurement": "GI50", "setting": "M14", "value": "> 100 µM (inactive)"}, {"measurement": "GI50", "setting": "MCF7", "value": "> 100 µM (inactive)"}, {"measurement": "GI50", "setting": "MDA-MB-231", "value": "> 100 µM (inactive)"}, {"measurement": "GI50", "setting": "MDA-MB-435", "value": "> 100 µM (inactive)"}, {"measurement": "GI50", "setting": "MDA-N", "value": "> 10 µM (inactive)"}, {"measurement": "GI50", "setting": "MOLT-4", "value": "> 100 µM (inactive)"}, {"measurement": "GI50", "setting": "Malme-3M", "value": "> 100 µM (inactive)"}, {"measurement": "GI50", "setting": "NCI-H226", "value": "> 100 µM (inactive)"}, {"measurement": "GI50", "setting": "NCI-H23", "value": "> 100 µM (inactive)"}, {"measurement": "GI50", "setting": "NCI-H460", "value": "> 100 µM (inactive)"}, {"measurement": "GI50", "setting": "NCI-H522", "value": "> 100 µM (inactive)"}, {"measurement": "GI50", "setting": "NCI/ADR-RES", "value": "> 100 µM (inactive)"}, {"measurement": "GI50", "setting": "OVCAR-3", "value": "> 100 µM (inactive)"}, {"measurement": "GI50", "setting": "OVCAR-4", "value": "> 100 µM (inactive)"}, {"measurement": "GI50", "setting": "OVCAR-5", "value": "> 100 µM (inactive)"}, {"measurement": "GI50", "setting": "OVCAR-8", "value": "> 100 µM (inactive)"}, {"measurement": "GI50", "setting": "PC-3", "value": "> 100 µM (inactive)"}, {"measurement": "GI50", "setting": "RPMI-8226", "value": "> 100 µM (inactive)"}, {"measurement": "GI50", "setting": "RXF 393", "value": "> 100 µM (inactive)"}, {"measurement": "GI50", "setting": "SF-268", "value": "> 100 µM (inactive)"}, {"measurement": "GI50", "setting": "SF-295", "value": "> 100 µM (inactive)"}, {"measurement": "GI50", "setting": "SF-539", "value": "74 µM (inactive)"}, {"measurement": "GI50", "setting": "SK-MEL-28", "value": "> 100 µM (inactive)"}, {"measurement": "GI50", "setting": "SK-MEL-2", "value": "30.7 µM (inactive)"}, {"measurement": "GI50", "setting": "SK-MEL-5", "value": "> 100 µM (inactive)"}, {"measurement": "GI50", "setting": "SK-OV-3", "value": "> 100 µM (inactive)"}, {"measurement": "GI50", "setting": "SN12C", "value": "> 100 µM (inactive)"}, {"measurement": "GI50", "setting": "SNB-19", "value": "> 100 µM (inactive)"}, {"measurement": "GI50", "setting": "SNB-75", "value": "> 100 µM (inactive)"}, {"measurement": "GI50", "setting": "SR", "value": "> 100 µM (inactive)"}, {"measurement": "GI50", "setting": "SW-620", "value": "> 100 µM (inactive)"}, {"measurement": "GI50", "setting": "T47D", "value": "> 100 µM (inactive)"}, {"measurement": "GI50", "setting": "TK-10", "value": "> 100 µM (inactive)"}, {"measurement": "GI50", "setting": "U-251", "value": "> 100 µM (inactive)"}, {"measurement": "GI50", "setting": "UACC-257", "value": "> 100 µM (inactive)"}, {"measurement": "GI50", "setting": "UO-31", "value": "> 100 µM (inactive)"}]}
